{"source": "patent US9856511B2", "about": "“Protease deubiquitinating inhibitor screening” (priority 2011, dated 2018)", "key": {"[1]": {"tested_on": "HCT-116 cells", "assay": "Immunoblot of DNA damage markers (phosphorylated p53, H2AX)", "type": "cell-based", "description": "(§1) The turnover of many cell cycle regulatory proteins is controlled by the UPS including inhibitors of the cyclin-dependent kinases p21 Cip1, p27 Kip1 and the tumor suppressor p53 (4). Treatment with b-AP15 increased their levels in a dose dependent manner.\nHCT-116 cells were treated with b-AP15 or doxorubicin (100 nM, as a positive control for genotoxic stress for 18 h) (FIG. 5). Cell lysates were immuno-blotted with antibodies for phosphorylated p53 and histone H2 Ax marker for DNA damage of for total levels of p53 and β-actin as loading controls."}, "[2]": {"tested_on": "isogenic clones of HCT116 colon cancer cells", "assay": "Apoptosis in isogenic HCT116 clones, caspase cleaved cytokeratin-18 ELISA", "type": "cell-based", "description": "The increase in sub G1 DNA content is associated with (i) activation of the apoptosis mediator caspase-3 and (ii) with cleavage of the caspase substrates poly-ADP ribose polymerase (PARP) and cytokeratin-18. […] Apoptosis induction by bortezomib is dependent on p53 and inhibited by overexpression of the Bcl-2 protein (16,17).\nFor determination of apoptosis parental HCT-116 p53+/+ cells were treated with the increasing doses of bortezomib or b-AP15 for 24 h. […] HCT-116 cells were seeded in 96-well microtiter plates at 10,000 cells per well and incubated overnight. Cells were treated with indicated drug for 24 h. At the end of the incubation period, NP40 was added to the tissue culture medium to 0.1% and 25 μl of the content of each well was assayed using the M30-Apoptosense® ELISA as previously described (43). Cell viability was determined by measuring acid phosphatase activity or using the FMCA method (44). For the acid phosphatase activity cells were seeded at 5000 cells per well in 96-well culture plates and incubated for 12 h at 37° C. Compounds were added to the cells in growth media and incubated for 72 h at 37° C. Cells were washed with 200 μl warm PBS. […] Absorbance was measured at 405 nm.\nb-AP15 inhibits degradation of ubiquitin-tagged YFP in a proteasome reporter cell line (FIG. 1a). Levels of ^UbG76V-YFP accumulation were determined by flow cytometry and immunoblotting; immunoblot of ubiquitin conjugation in HCT-116 cells treated with b-AP15 (1 μM) or bortezomib (100 nM) (FIG. 1b). […] Immunoblot of ODC-1 levels in HCT-116 cells following treatment with bortezomib ([…] or b-Ap15 (1 μM) (FIG. 1d); values represent quantified optical density units of ODC-1 normalized to β-actin. Cell cycle profiles of b-AP15 treated HCT-116 cells (FIG. 1e); cells were analyzed by propidium iodide staining and flow cytometry. Levels of caspase activity in isogenic HCT-116 cells as determined by ELISA for caspase cleaved cytokeratin-18 (CK18-Asp398) following treatment with bortezomib (100 nM) or b-AP15 (1 μM) (**′P=0.01, ***′P=0.001) (FIG. 1f). […]"}, "[3]": {"molecular_target": "T1, UCHL1 (Homo sapiens, UniProt P09936)", "T1 sequence (P09936 1-223)": "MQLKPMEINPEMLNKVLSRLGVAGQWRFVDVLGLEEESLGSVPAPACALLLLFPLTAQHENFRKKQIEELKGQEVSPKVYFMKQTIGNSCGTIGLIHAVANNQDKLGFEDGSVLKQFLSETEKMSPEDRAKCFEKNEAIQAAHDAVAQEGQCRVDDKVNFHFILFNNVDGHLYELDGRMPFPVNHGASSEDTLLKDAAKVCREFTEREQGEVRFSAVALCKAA", "assay": "HA-UbVS competitive labelling, non-proteasomal DUB", "type": "binding", "from_the_text": "The deubiquitinating activity of the proteasome is attributed to the action of three DUBs, UCHL5, USP14 and POH1, all localized within the 19S RP 26-28. Both UCHL5 and USP14 are sensitive to N-ethylmaleimide (NEM), a general inhibitor of cysteine proteases, whereas POH1 is insensitive to inhibition by NEM but sensitive to metal chelators such as N,N,N,N-tetrakis-(2-pyridylmethyl)ethylenediamine (TPEN) (29). […] To identify specifically which DUBs were inhibited by b-AP15 treatment, competitive labelling experiments were performed using hemagglutinin tagged ubiquitin vinylsulphonone (HA-UbVS), an active site directed probe that irreversibly reacts with DUBs of the cysteine class (26).\nFor labelling of DUBs in cell lysates sub confluent cells were harvested by trypsinization, washed three times with PBS, and centrifuged at 1500 RPM for 5 min. Cell pellets were lysed with buffer (50 mM HEPES pH 7.4, 250 mM sucrose, 10 mM MgCl2, 2 mM ATP, 1 mM DTT) on ice for 15 min. Debris was removed by centrifugation and 25 μg of protein was labelled with 1 μM HA-UbVS for 30 min at 37° C. Samples were resolved by SDS-PAGE and analyzed by immunoblotting with indicated antibodies."}, "[4]": {"molecular_target": "T2, 26S proteasome (Homo sapiens, UniProt P54578+Q9Y5K5)", "T2 construct": "purchased Boston Biochem E-365", "assay": "DUB inhibition assay, 26S proteasomes with ubiquitin-AMC", "type": "biochemical", "conditions": "Ub-AMC"}, "[5]": {"tested_on": "HCT-116 cells", "assay": "Cell-cycle analysis, propidium iodide staining and flow cytometry", "type": "cell-based", "description": "as §1\nFor determination of cell cycle HCT-116 cells were treated with b-AP15 or DMSO Cells were harvested by trypsinisation, washed and fixed in 70% ice cold EtOH for 12 h. Cells were re-suspended in staining solution containing propidium iodide (50 μg/ml) and RNAse A (0.5 μg/ml) in PBS. Samples were run on BD FACScalibur. The percentage of cells in each phase of the cell cycle was determined using ModFit software.\nb-AP15 inhibits degradation of ubiquitin-tagged YFP in a proteasome reporter cell line (FIG. 1a). Levels of ^UbG76V-YFP accumulation were determined by flow cytometry and immunoblotting; immunoblot of ubiquitin conjugation in HCT-116 cells treated with b-AP15 (1 μM) or bortezomib (100 nM) (FIG. 1b). Immunoblot of ubiquitin conjugates, caspase 3 activation PARP cleavage, p53. P21^Cip1 and p^Kip1 in HCT-116 cells following 24 h treatment with the indicated concentrations of b-AP15 (FIG. 1c). […]"}}}
{"compound": "C=CC(=O)N1C/C(=C\\c2ccc([N+](=O)[O-])cc2)C(=O)/C(=C/c2ccc([N+](=O)[O-])cc2)C1", "note": "[b-AP15]", "values": [{"measurement": "level of DNA damage markers phosphorylated p53 (Ser 15) and H2AX (Ser 139)", "setting": "[1]", "value": "no increase was observed"}, {"measurement": "apoptosis: effect of genetic disruption of BAX or PUMA", "setting": "[2]", "value": "does not affect b-AP15 sensitivity"}, {"measurement": "caspase cleavage of cytokeratin-18: effect of p53 disruption or Bcl-2 overexpression", "setting": "[2]", "value": "not affected by genetic disruption of p53 or overexpression of Bcl-2"}, {"measurement": "activity of non-proteasomal DUB UCHL1", "setting": "[3]", "value": "without affecting the activity"}, {"measurement": "inhibition of deubiquitinating activity of 26S proteasome", "setting": "[4]", "value": "inhibits the deubiquitinating activity"}, {"measurement": "cell cycle effect", "setting": "[5]", "value": "cell cycle arrest in the G2/M phase boundary"}]}
